Reference: PMC11732138, “Gold complex compounds that inhibit drug-resistant Staphylococcus aureus by targeting thioredoxin reductase” (Frontiers in Antibiotics, 2023)
In brackets after ≈: the same amount, converted by molar mass. Where two headings read alike, the source gives them in different places.

How the values were obtained:
S. aureus MW2 [1] = assay: Broth microdilution MIC, S. aureus MW2; format: cell-based, Staphylococcus aureus; settings: for MIC: S. aureus MW2 (MRSA), broth microdilution, 18 h
Protocol: (§1) In vitro antibiotic susceptibilities were determined using the broth microdilution assay established by the Clinical and Laboratory Standards Institute ([Clinical and Laboratory Standards Institute, 2012]). Broth microdilution assays were carried out with 2 biological replicates, each in triplicate, Mueller–Hinton broth (MHB; BD Biosciences, Franklin Lakes, NJ, USA) with a total assay volume of 100 μL in 96-well plates (BD Biosciences, Franklin Lakes, NJ, USA). Two-fold serial dilutions of compounds were prepared at a range of 0.01– 64 μg/mL in 50 μL of MHB. The initial bacterial inoculum was adjusted to OD600 0.06, 50 μL was, added to the test compounds, and then incubated at 35°C for 18 h. Post incubation, OD600 was measured using a Vmax microplate reader (Molecular Devices, San Jose, CA), and the lowest concentration of test compound that suppressed bacterial growth was reported as the MIC. Broth culture from the MIC assay (10 μL) was plated on Mueller–Hinton agar (BD Biosciences, Franklin Lakes, NJ, USA), and colony-forming units (CFUs) were enumerated after overnight incubation at 37°C.

E. faecium ATCC E007 = assay: Broth microdilution MIC, E. faecium; format: cell-based, Enterococcus faecium; settings: Enterococcus faecium, ATCCE007; E. faecium ATCC E007; read-out: MIC
Protocol: as §1

A. baumannii 17978 = assay: Broth microdilution MIC, A. baumannii; format: cell-based, Acinetobacter baumannii; settings: Acinetobacter baumannii; A. baumannii 17978; read-out: MIC
Protocol: as §1

P. aeruginosa PA14 = assay: Broth microdilution MIC, P. aeruginosa; format: cell-based, Pseudomonas aeruginosa; settings: Pseudomonas aeruginosa; P. aeruginosa PA14; read-out: MIC
Protocol: as §1

S. aureus TrxR = S. aureus TrxR (Staphylococcus aureus, UniProt P66011); assay: TrxR (TrxB) enzymatic assay, DTNB to TNB conversion; settings: for TrxR enzymatic inhibitory activity (in words): DTNB to TNB conversion
S. aureus TrxR, sequence (P66011 whole entry): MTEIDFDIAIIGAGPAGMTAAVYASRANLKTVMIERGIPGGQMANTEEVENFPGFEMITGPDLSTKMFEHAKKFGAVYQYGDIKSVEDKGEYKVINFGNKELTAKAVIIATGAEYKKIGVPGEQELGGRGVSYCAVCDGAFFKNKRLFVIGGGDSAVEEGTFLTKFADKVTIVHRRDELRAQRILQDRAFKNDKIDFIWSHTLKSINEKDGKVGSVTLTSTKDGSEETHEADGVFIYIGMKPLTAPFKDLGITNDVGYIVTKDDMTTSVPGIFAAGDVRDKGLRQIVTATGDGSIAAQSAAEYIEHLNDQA
Protocol: TrxR specific inhibitory activity was evaluated using 40 μL of S. aureus TrxR enzyme (0.5 μg/μL) per 200 mL of the reaction mixture for 15 minutes, comparing auranofin to other sulfur-containing compounds (all tested at 10 μg/mL), including known anti-S. aureus compounds.
For the screening assay, diluted TrxR assay buffer (Cayman Chemical, Ann Arbor, MI) (100 μL) was mixed with the investigational compounds (20 μL) in a 96 well-plate format and combined with Sa-TrxB (40 μL; 0.5 μg/mL), DTNB (20 μL) and NADPH (20 μL). The reaction entailed combining NADPH and Sa-TrxB with DTNB, which was converted to TNB, producing a yellow color.

K. pneumoniae ATCC 77326 = assay: Broth microdilution MIC, K. pneumoniae; format: cell-based, Klebsiella pneumonia; settings: Klebsiella pneumoniae, ATCC77326; K. pneumoniae ATCC 77326; read-out: MIC
Protocol: as §1

Enterobacter (EAE 2625) = assay: Broth microdilution MIC, Enterobacter; format: cell-based, Enterobacter spp.; settings: Enterobacter (EAE 2625); read-out: MIC
Protocol: as §1

[2] = test system: clinical isolates of S. aureus; assay: MIC against clinical isolates of S. aureus; format: cell-based; settings: Staphylococcus aureus, read-out: MIC
Protocol: Broth microdilution assays were carried out with 2 biological replicates, each in triplicate, Mueller–Hinton broth (MHB; BD Biosciences, Franklin Lakes, NJ, USA) with a total assay volume of 100 μL in 96-well plates (BD Biosciences, Franklin Lakes, NJ, USA). […] The initial bacterial inoculum was adjusted to OD600 0.06, 50 μL was, added to the test compounds, and then incubated at 35°C for 18 h. Post incubation, OD600 was measured using a Vmax microplate reader (Molecular Devices, San Jose, CA), and the lowest concentration of test compound that suppressed bacterial growth was reported as the MIC.
Isolates were tested as 2 biological replicates.

[3] = Compound solubility in PBS; format: physicochemical; settings: aqueous buffer, kinetic from dmso stock; PBS, 2 Hour; highest concentration with no detectable precipitate; read-out: Solubility Limit
Protocol: Compound solubility in PBS. Compound solubility was measured in PBS. Briefly, serial dilutions of test compounds were prepared in DMSO at 100x the final concentration. Test compound solutions were diluted 100-fold into PBS in a 96-well plate and mixed. After 2 h, the presence of precipitate was detected by measuring absorbance at 540 nm.

[4] = test system: intracellular free thiols of S. aureus MW2; assay: Thiol depletion assay; format: cell-based, Staphylococcus aureus; settings: treated vs untreated cell lysate
Protocol: S. aureus MW2 was treated for 15 min with the indicated (0.125, 0.25, 0.5, or 0.75 µg/mL) concentrations of auranofin, AU1, AU5, or ampicillin. After treatment bacteria were washed twice in PBS and then resuspended in 100 mM potassium phosphate, monobasic, pH 7.4, containing 1 mM ethylenediaminetetraacetic acid to promote lysis. Cells were incubated in the lysis solution for 30 min at 60°C and then vortexed briefly. The solution was centrifuged at 13,000 g for 10 min to collect cell debris. Lysate was collected and 50 μL was transferred to a 96-well plate. Thiols were quantified using the Fluorometric Thiol assay kit following the manufacturer’s instructions (Millipore Sigma, St. Louis, MO, USA). The fluorescence intensity was measured after a 30 min incubation time at λex = 490/λem = 535 nm using a Vmax plate reader.

S. aureus MW2 [5] = assay: Diamide assay (CFU reduction); format: cell-based, Staphylococcus aureus; settings: 3 h
Protocol: An overnight culture of S. aureus MW2 was inoculated in tryptic soy broth (TSB) media and grown with agitation. The cells were centrifuged, washed with PBS, and diluted to an OD600 0.4 (10^8 CFU/mL) in PBS. The cells were then treated with auranofin (0.5 µg/mL), AU1 (0.5 µg/mL), AU5 (0.5 µg/mL), and diamide (5 mM and 10 mM) alone or in combinations for 3 h at 37°C. The cells were then serially diluted and plated on tryptic soy agar (TSA) media and incubated at 37°C for 24 h. Colonies that grew on plates were enumerated to determine the effect of the drug and diamide on S. aureus.

CC(C)(C)c1ccc(S(=O)(=O)/C=C/C#N)cc1 [Bay11-7085]
MIC (S. aureus MW2 [1]; Staphylococcus aureus, read-out: MIC): 4 µg/mL (≈ 16 µM)
MIC (E. faecium ATCC E007): 32 µg/mL (≈ 128 µM)
MIC (A. baumannii 17978): 64 µg/mL (≈ 257 µM)
MIC (P. aeruginosa PA14): > 64 µg/mL
OD420 in TrxR enzymatic assay (S. aureus TrxR; subscreen, after a 30 min incubation period, DMSO 0.483 ± 0.121): 0.1094
MIC (K. pneumoniae ATCC 77326): > 64 µg/mL
MIC (Enterobacter (EAE 2625)): > 64 µg/mL

CC(C)(C)c1ccc(S)cc1 [C1, 4-tert-butylbenzenethiol]
MIC (S. aureus MW2 [1]): > 128 µg/mL

CC(C)(C)c1ccc(S(=O)O)cc1 [C2, 4-tert-butylbenzenesulfinic acid]
MIC (S. aureus MW2 [1]): > 128 µg/mL

CCP(=O)(CC)CC [C3, triethylphosphine oxide]
MIC (S. aureus MW2 [1]): > 128 µg/mL

O=P(c1ccccc1)(c1ccccc1)c1ccccc1 [C4, Triphenylphosphine oxide]
MIC (S. aureus MW2 [1]): > 128 µg/mL

CC(C)(C)c1ccc(S(=O)(=O)/C=C/C(N)=O)cc1 [D22]
anti-S. aureus activity (in words) (S. aureus MW2 [1]): not effective S. aureus inhibitors
TrxR enzymatic inhibitory activity (in words) (S. aureus TrxR): demonstrated inhibitory activity but required higher concentrations than AU1, AU5, or auranofin

COC(=O)/C=C/S(=O)(=O)c1ccc(C(C)(C)C)cc1 [D25]
anti-S. aureus activity (in words) (S. aureus MW2 [1]): not effective S. aureus inhibitors
TrxR enzymatic inhibitory activity (in words) (S. aureus TrxR): did not inhibit

CC(C)(C)c1ccc(S(=O)(=O)/C=C/CO)cc1 [D26]
anti-S. aureus activity (in words) (S. aureus MW2 [1]): not effective S. aureus inhibitors
TrxR enzymatic inhibitory activity (in words) (S. aureus TrxR): demonstrated inhibitory activity but required higher concentrations than AU1, AU5, or auranofin

Cc1onc(-c2ccccc2)c1C(=O)N[C@@H]1C(=O)N2[C@@H]1SC(C)(C)[C@@H]2C(=O)O [Oxacillin]
MIC ([2]; isolate BFSA12): 0.5 µg/mL (≈ 1.25 µM)
MIC ([2]; isolate BFSA13): 1 µg/mL (≈ 2.49 µM)
MIC ([2]; isolate BFSA15): 0.25 µg/mL (≈ 0.623 µM)
MIC ([2]; isolate BFSA16): 0.25 µg/mL (≈ 0.623 µM)
MIC ([2]; isolate BFSA17): 0.125 µg/mL (≈ 0.311 µM)
MIC ([2]; isolate BFSA18): 0.5 µg/mL (≈ 1.25 µM)
MIC ([2]; isolate BFSA19): 0.5 µg/mL (≈ 1.25 µM)
MIC ([2]; isolate BFSA20): 0.5 µg/mL (≈ 1.25 µM)
MIC ([2]; isolate BFSA21): 0.5 µg/mL (≈ 1.25 µM)
MIC ([2]; isolate BFSA22): 1 µg/mL (≈ 2.49 µM)
MIC ([2]; isolate BFSA24): 0.5 µg/mL (≈ 1.25 µM)
MIC ([2]; isolate BFSA26): 0.25 µg/mL (≈ 0.623 µM)
MIC ([2]; isolate BFSA29): > 8 µg/mL
MIC ([2]; isolate BFSA30): > 8 µg/mL
MIC ([2]; isolate BFSA31): > 8 µg/mL
MIC ([2]; isolate BFSA32): > 8 µg/mL
MIC ([2]; isolate BFSA33): > 8 µg/mL
MIC ([2]; isolate BFSA34): > 8 µg/mL
MIC ([2]; isolate BFSA35): > 8 µg/mL
MIC ([2]; isolate BFSA36): > 8 µg/mL
MIC ([2]; isolate BFSA37): 0.25 µg/mL (≈ 0.623 µM)
MIC ([2]; isolate BFSA38): 0.25 µg/mL (≈ 0.623 µM)
MIC ([2]; isolate BFSA39): 0.25 µg/mL (≈ 0.623 µM)
MIC ([2]; isolate BFSA148): > 8 µg/mL
MIC ([2]; isolate BFSA149): > 8 µg/mL
MIC ([2]; isolate BFSA150): > 8 µg/mL
MIC ([2]; isolate BFSA151): > 8 µg/mL
MIC ([2]; isolate BFSA152): > 8 µg/mL
MIC ([2]; isolate BFSA153): > 8 µg/mL
MIC ([2]; isolate BFSA155): > 8 µg/mL

COC(=O)[C@H]1[C@H]2C[C@@H]3c4[nH]c5cc(OC)ccc5c4CCN3C[C@H]2C[C@@H](OC(=O)c2cc(OC)c(OC)c(OC)c2)[C@@H]1OC [Reserpine]
solubility at 2 h [3]: 7.81 µM (≈ 4.75 µg/mL)

CC1(C)S[C@@H]2[C@H](NC(=O)[C@H](N)c3ccccc3)C(=O)N2[C@H]1C(=O)O [ampicillin]
impact on free thiols (in words) [4]: no impact

CN(C)C(=O)/N=N/C(=O)N(C)C [diamide]
log CFU reduction (S. aureus MW2 [5]; diamide alone 5 mM): 1.5 log CFU
log CFU reduction (S. aureus MW2 [5]; diamide alone 10 mM): up to 2.6 log CFU
